Measured values reported in PubChem BioAssay (NCI).
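Method: 48-hour compound exposure of cells in 96-well plates, five concentrations, linear interpolation of endpoints. At the TGI there is no net growth.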

Columns and labels:
Experiment in all cases: DTP human tumour cell line panel, 48 h
[1] = test system: T-47D breast
[2] = test system: SW-620 colon
[3] = test system: M14 melanoma
[4] = test system: ACHN renal
[5] = test system: TK-10 renal
[6] = test system: MDA-MB-231 breast
[7] = test system: K-562 leukemia
[8] = test system: 786-0 renal
[9] = test system: IGROV1 ovarian
[10] = test system: NCI-H522 lung
[11] = test system: OVCAR-5 ovarian
[12] = test system: MOLT-4 leukemia
[13] = test system: SF-295 CNS
[14] = test system: HT29 colon
[15] = test system: NCI-H460 lung
[16] = test system: RXF 393 renal
[17] = test system: MDA-N
[18] = test system: CCRF-CEM leukemia
[19] = test system: OVCAR-4 ovarian
[20] = test system: HS 578T breast
[21] = test system: HCT-116 colon
[22] = test system: NCI-H226 lung
[23] = test system: SK-MEL-28 melanoma
[24] = test system: NCI/ADR-RES ovarian
[25] = test system: MDA-MB-435
[26] = test system: PC-3 prostate
[27] = test system: SF-268 CNS
[28] = test system: UACC-257 melanoma
[29] = test system: SK-OV-3 ovarian
[30] = test system: SR leukemia
[31] = test system: EKVX NSCLC
[32] = test system: BT-549 breast
[33] = test system: MCF7 breast
[34] = test system: COLO 205 colon
[35] = test system: LOX IMVI melanoma
[36] = test system: CAKI-1 renal
[37] = test system: RPMI-8226 leukemia
[38] = test system: HCC-2998 colon
[39] = test system: A549 NSCLC
[40] = test system: UACC-62 melanoma
[41] = test system: SK-MEL-2 melanoma
[42] = test system: SK-MEL-5 melanoma
[43] = test system: HL-60(TB) leukemia
[44] = test system: HOP-92 NSCLC
[45] = test system: OVCAR-8 ovarian
[46] = test system: HCT-15 colon
[47] = test system: A498 renal
[48] = test system: U251 CNS
[49] = test system: SN12C renal
[50] = test system: OVCAR-3 ovarian
[51] = test system: SNB-75 CNS
[52] = test system: SNB-19 CNS
[53] = test system: KM12 colon
[54] = test system: NCI-H23 lung
[55] = test system: DU-145 prostate
[56] = test system: HOP-62 NSCLC
[57] = test system: UO-31 renal
[58] = test system: SF-539 CNS
[59] = test system: MALME-3M melanoma

Structure (SMILES): CC(=O)Nc1ccc2[nH]c(C(=O)N3CC(CCl)c4c3cc([N+](=O)[O-])c3ccccc43)cc2c1 (stereo not drawn)
- TGI [1]: 9.92 µM
- TGI [2]: > 100 µM
- TGI [3]: > 100 µM
- TGI [4]: > 100 µM
- TGI [5]: > 100 µM
- TGI [6]: > 100 µM
- TGI [7]: > 45.8 µM
- TGI [8]: > 100 µM
- TGI [9]: > 53 µM
- TGI [10]: 6.61 µM
- TGI [11]: 96.9 µM
- TGI [12]: > 67.6 µM
- TGI [13]: > 100 µM
- TGI [14]: > 100 µM
- TGI [15]: > 100 µM
- TGI [16]: 32.7 µM
- TGI [17]: > 100 µM
- TGI [18]: 29 µM
- TGI [19]: > 100 µM
- TGI [20]: > 95 µM
- TGI [21]: > 100 µM
- TGI [22]: 58.8 µM
- TGI [23]: > 100 µM
- TGI [24]: > 100 µM
- TGI [25]: > 100 µM
- TGI [26]: > 100 µM
- TGI [27]: > 57.1 µM
- TGI [28]: > 100 µM
- TGI [29]: > 65.1 µM
- TGI [30]: 5.83 µM
- TGI [31]: > 89.4 µM
- TGI [32]: > 100 µM
- TGI [33]: > 100 µM
- TGI [34]: > 100 µM
- TGI [35]: > 100 µM
- TGI [36]: > 29.9 µM
- TGI [37]: > 27.8 µM
- TGI [38]: > 100 µM
- TGI [39]: 1.15 µM
- TGI [40]: > 31.6 µM
- TGI [41]: > 69.5 µM
- TGI [42]: > 100 µM
- TGI [43]: 23 µM
- TGI [44]: > 43.7 µM
- TGI [45]: > 100 µM
- TGI [46]: > 100 µM
- TGI [47]: 4.06 µM
- TGI [48]: > 100 µM
- TGI [49]: > 100 µM
- TGI [50]: > 100 µM
- TGI [51]: > 64.4 µM
- TGI [52]: > 100 µM
- TGI [53]: > 71.7 µM
- TGI [54]: > 100 µM
- TGI [55]: > 100 µM

Structure (SMILES): O=S(=O)(NNc1ccccc1)c1ccccc1
- TGI [1]: 51.5 µM
- TGI [2]: > 100 µM
- TGI [3]: 17.3 µM
- TGI [4]: 15.8 µM
- TGI [5]: > 100 µM
- TGI [6]: 17.5 µM
- TGI [7]: 39.5 µM
- TGI [8]: > 100 µM
- TGI [9]: 32.7 µM
- TGI [10]: 31.1 µM
- TGI [11]: > 100 µM
- TGI [12]: 99 µM
- TGI [13]: 25.4 µM
- TGI [14]: 27.2 µM
- TGI [15]: 21.2 µM
- TGI [16]: 38.5 µM
- TGI [17]: 25.3 µM
- TGI [18]: 50 µM
- TGI [19]: 31.5 µM
- TGI [20]: > 100 µM
- TGI [21]: 29.4 µM
- TGI [22]: 18.5 µM
- TGI [23]: > 100 µM
- TGI [24]: 36.1 µM
- TGI [25]: 21.3 µM
- TGI [26]: 22.9 µM
- TGI [27]: > 100 µM
- TGI [28]: > 100 µM
- TGI [29]: > 100 µM
- TGI [30]: 53.1 µM
- TGI [31]: 31.9 µM
- TGI [32]: 44.2 µM
- TGI [33]: 28.8 µM
- TGI [34]: 22.3 µM
- TGI [35]: 13.6 µM
- TGI [56]: 32.7 µM
- TGI [36]: 13.5 µM
- TGI [37]: 46.4 µM
- TGI [38]: > 100 µM
- TGI [57]: 25.7 µM
- TGI [39]: 23.5 µM
- TGI [40]: 30 µM
- TGI [41]: 44.3 µM
- TGI [42]: 12.7 µM
- TGI [43]: 13.5 µM
- TGI [44]: 55.4 µM
- TGI [45]: > 100 µM
- TGI [46]: > 100 µM
- TGI [58]: > 100 µM
- TGI [47]: > 100 µM
- TGI [48]: 33.9 µM
- TGI [49]: 18.7 µM
- TGI [50]: 58.7 µM
- TGI [51]: > 100 µM
- TGI [52]: > 100 µM
- TGI [53]: 18.1 µM
- TGI [54]: > 100 µM
- TGI [55]: 34.3 µM

Structure (SMILES): OC(COC(c1ccccc1)(c1ccccc1)c1ccccc1)C(O)CC1SCCS1 (stereo not drawn)
- TGI [1]: 58.3 µM
- TGI [2]: > 100 µM
- TGI [3]: 84.3 µM
- TGI [4]: 38.3 µM
- TGI [5]: 39.6 µM
- TGI [6]: 35.2 µM
- TGI [7]: > 100 µM
- TGI [8]: 39.7 µM
- TGI [9]: 30.5 µM
- TGI [11]: 44 µM
- TGI [12]: 68.7 µM
- TGI [14]: 34.3 µM
- TGI [16]: 32.1 µM
- TGI [17]: 60.1 µM
- TGI [18]: > 100 µM
- TGI [20]: 39.7 µM
- TGI [21]: 37.1 µM
- TGI [22]: 35.3 µM
- TGI [23]: 48.8 µM
- TGI [24]: 52.9 µM
- TGI [25]: 91.9 µM
- TGI [26]: 31.8 µM
- TGI [27]: 50.9 µM
- TGI [28]: 51.8 µM
- TGI [29]: 48.9 µM
- TGI [30]: 0.953 µM
- TGI [31]: 30.7 µM
- TGI [32]: 44.1 µM
- TGI [33]: 71.9 µM
- TGI [34]: 38.4 µM
- TGI [35]: 32 µM
- TGI [56]: 30.7 µM
- TGI [36]: 66.6 µM
- TGI [37]: 34.2 µM
- TGI [57]: 24.5 µM
- TGI [40]: 36 µM
- TGI [59]: 26.3 µM
- TGI [41]: 34.3 µM
- TGI [42]: 40.1 µM
- TGI [43]: > 100 µM
- TGI [45]: 57.7 µM
- TGI [46]: 73.9 µM
- TGI [58]: 43.8 µM
- TGI [47]: 28.4 µM
- TGI [48]: 62.4 µM
- TGI [49]: 45.2 µM
- TGI [50]: 62.9 µM
- TGI [52]: 54.9 µM
- TGI [53]: 29.8 µM
- TGI [54]: 40 µM
- TGI [55]: 41.5 µM

Structure (SMILES): COc1c(-c2nc3nc(N4CCN(C)CC4)ccc3[nH]2)cc(OC)c2c1nc(COC(C)=O)n2C
- TGI [1]: > 100 µM
- TGI [3]: > 100 µM
- TGI [4]: > 100 µM
- TGI [5]: 0.0263 µM
- TGI [6]: > 100 µM
- TGI [7]: > 100 µM
- TGI [8]: > 100 µM
- TGI [9]: > 100 µM
- TGI [10]: > 100 µM
- TGI [11]: > 100 µM
- TGI [12]: > 100 µM
- TGI [13]: > 100 µM
- TGI [14]: > 100 µM
- TGI [16]: > 100 µM
- TGI [17]: > 100 µM
- TGI [19]: > 100 µM
- TGI [20]: > 100 µM
- TGI [21]: > 100 µM
- TGI [22]: > 100 µM
- TGI [24]: > 100 µM
- TGI [25]: > 100 µM
- TGI [26]: > 100 µM
- TGI [27]: > 100 µM
- TGI [28]: > 100 µM
- TGI [29]: > 100 µM
- TGI [31]: > 100 µM
- TGI [32]: > 100 µM
- TGI [33]: > 100 µM
- TGI [34]: > 100 µM
- TGI [35]: > 100 µM
- TGI [56]: > 100 µM
- TGI [36]: > 100 µM
- TGI [57]: > 100 µM
- TGI [39]: > 100 µM
- TGI [40]: > 100 µM
- TGI [59]: > 100 µM
- TGI [41]: > 100 µM
- TGI [42]: > 100 µM
- TGI [44]: > 100 µM
- TGI [45]: > 100 µM
- TGI [46]: > 100 µM
- TGI [47]: > 100 µM
- TGI [48]: > 100 µM
- TGI [49]: > 100 µM
- TGI [50]: > 100 µM
- TGI [52]: > 100 µM
- TGI [53]: > 100 µM
- TGI [54]: > 100 µM
- TGI [55]: > 100 µM
